Ki data for 32 compounds are collected here from patent publication US20040156869A1, “2-substituted quinazolin-4-ylamine analogues” (Neurogen Corporation, priority 2002, published 2004).

The target of the test is human capsaicin receptor (VR1) (Homo sapiens, UniProt Q8NER1). As to the kind of experiment: Capsaicin receptor binding assay ([3H]RTX competition, VR1-transfected HEK293 membranes).
Sequence of human capsaicin receptor (VR1) (Q8NER1 whole entry): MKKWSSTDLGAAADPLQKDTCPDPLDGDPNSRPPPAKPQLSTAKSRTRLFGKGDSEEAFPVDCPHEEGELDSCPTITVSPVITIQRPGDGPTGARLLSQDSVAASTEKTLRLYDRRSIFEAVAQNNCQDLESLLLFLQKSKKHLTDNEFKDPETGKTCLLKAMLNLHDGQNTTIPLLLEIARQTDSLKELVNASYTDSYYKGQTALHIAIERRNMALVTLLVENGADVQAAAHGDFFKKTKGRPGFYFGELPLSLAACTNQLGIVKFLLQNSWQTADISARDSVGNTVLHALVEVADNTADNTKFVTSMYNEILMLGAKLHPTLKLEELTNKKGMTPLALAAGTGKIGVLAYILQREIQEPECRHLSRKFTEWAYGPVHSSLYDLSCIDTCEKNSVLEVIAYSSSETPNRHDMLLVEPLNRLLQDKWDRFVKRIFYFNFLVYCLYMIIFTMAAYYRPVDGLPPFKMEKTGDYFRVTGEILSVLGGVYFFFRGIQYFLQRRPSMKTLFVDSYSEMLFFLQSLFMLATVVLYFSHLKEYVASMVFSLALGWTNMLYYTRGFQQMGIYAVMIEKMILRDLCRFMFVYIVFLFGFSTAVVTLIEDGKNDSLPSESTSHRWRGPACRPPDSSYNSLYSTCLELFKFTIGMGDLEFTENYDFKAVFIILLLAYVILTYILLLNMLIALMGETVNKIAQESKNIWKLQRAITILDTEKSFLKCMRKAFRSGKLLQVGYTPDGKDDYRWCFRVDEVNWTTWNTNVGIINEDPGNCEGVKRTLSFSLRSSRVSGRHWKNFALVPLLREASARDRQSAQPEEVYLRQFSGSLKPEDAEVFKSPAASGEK
A word on the Ki: it is a dissociation constant, usually derived from enzyme kinetics or from competition with a known ligand. Higher therefore signals a looser hold on the target. Consider `CCOCc1nc(Nc2ccc(C(F)(F)F)nc2)c2ccc(-c3ncccc3Cl)nc2n1` [Compound 146, [7-(3-Chloro-pyridin-2-yl)-2-ethoxymethyl-pyrido[2,3-d]pyrimidin-4-yl]-(6-trifluoromethyl-pyridin-3-yl)-amine], for which the Ki was < 1 µM. The result for `COCc1nc(Nc2ccc(C(F)(F)F)nc2)c2ccc(-c3ncccc3C(F)(F)F)nc2n1` [Compound 147, [2-Methoxymethyl-7-(3-trifluoromethyl-pyridin-2-yl)-pyrido[2,3-d]pyrimidin-4-yl]-(6-trifluoromethyl-pyridin-3-yl)-amine] reads < 1 µM; that for `COCc1nc(Nc2ccc(C(F)(F)F)nc2)c2ccc(-c3ncccc3C)nc2n1` [Compound 148, [2-Methoxymethyl-7-(3-methyl-pyridin-2-yl)-pyrido[2,3-d]pyrimidin-4-yl]-(6-trifluoromethyl-pyridin-3-yl)-amine], < 1 µM. The result for `COCc1nc(Nc2ccc(C3(C#N)CCC3)cc2)c2ccc(-c3ncccc3C)nc2n1` [Compound 149, 1-{4-[2-Methoxymethyl-7-(3-methyl-pyridin-2-yl)-pyrido[2,3-d]pyrimidin-4-ylamino]-phenyl}-cyclobutanecarbonitrile] reads < 1 µM. Under `CCOCc1nc(Nc2ccc(C3(C#N)CCC3)cc2)c2ccc(-c3ncccc3Cl)nc2n1` [Compound 150, 1-{4-[7-(3-Chloro-pyridin-2-yl)-2-ethoxymethyl-pyrido[2,3-d]pyrimidin-4-ylamino]-phenyl}-cyclobutanecarbonitrile] stands < 1 µM; under `Cc1cccnc1-c1ccc2c(Nc3ccc(C4(C#N)CCC4)cc3)nc(COCC(C)C)nc2n1` [Compound 151, 1-{4-[2-Isobutoxymethyl-7-(3-methyl-pyridin-2-yl)-pyrido[2,3-d]pyrimidin-4-ylamino]-phenyl}-cyclobutanecarbonitrile], < 1 µM.

On to `FC(F)(F)c1ccc(Nc2nc(COC3CCOCC3)nc3cc(-c4ncccc4C(F)(F)F)ccc23)cn1` [Compound 154, [2-(Tetrahydro-pyran-4-yloxymethyl)-7-(3-trifluoromethyl-pyridin-2-yl)-quinazolin-4-yl]-(6-trifluoromethyl-pyridin-3-yl)-amine], for which the Ki was < 1 µM. Under `CC(C)(C)c1ccc(Nc2nc(CO)nc3cc(-c4ncccc4C(F)(F)F)ccc23)cc1` [Compound 155, [4-(4-tert-Butyl-phenylamino)-7-(3-trifluoromethyl-pyridin-2-yl)-quinazolin-2-yl]-methanol] stands < 1 µM; under `CC(C)c1ccc(Nc2nc(CO)nc3cc(-c4ncccc4C(F)(F)F)ccc23)cc1` [Compound 156, [4-(4-Isopropyl-phenylamino)-7-(3-trifluoromethyl-pyridin-2-yl)-quinazolin-2-yl]-methanol], < 1 µM; under `CC(C)(C)c1ccc(Nc2nc(CO)nc3cc(-c4ncccc4Cl)ccc23)cc1` [Compound 157, [4-(4-tert-Butyl-phenylamino)-7-(3-chloro-pyridin-2-yl)-quinazolin-2-yl]-methanol], < 1 µM. The result for `CC(C)c1ccc(Nc2nc(CO)nc3cc(-c4ncccc4Cl)ccc23)cc1` [Compound 158, [7-(3-Chloro-pyridin-2-yl)-4-(4-isopropyl-phenylamino)-quinazolin-2-yl]-methanol] reads < 1 µM; that for `COCc1nc(Nc2ccc(S(=O)(=O)C(F)(F)F)cc2)c2ccc(-c3ncccc3C)nc2n1` [Compound 159, [2-Methoxymethyl-7-(3-methyl-pyridin-2-yl)-pyrido[2,3-d]pyrimidin-4-yl]-(4-trifluoromethanesulfonyl-phenyl)-amine], < 1 µM. As for `COCc1nc(Nc2ccc(C3(C(=O)N4C[C@@H](C)O[C@@H](C)C4)CCC3)cc2)c2ccc(-c3ncccc3C(F)(F)F)nc2n1` [Compound 160, (2,6-Dimethyl-morpholin-4-yl)-(1-{4-[2-methoxymethyl-7-(3-trifluoromethyl-pyridin-2-yl)-pyrido[2,3-d]pyrimidin-4-ylamino]-phenyl}-cyclobutyl)-methanone], the Ki was < 1 µM. Consider `Cc1cccnc1-c1ccc2c(Nc3ccc(C(C)(C)C#N)cc3)nc(COCC(C)C)nc2n1` [Compound 161, 2-{4-[2-Isobutoxymethyl-7-(3-methyl-pyridin-2-yl)-pyrido[2,3-d]pyrimidin-4-ylamino]-phenyl}-2-methyl-propionitrile], for which the Ki was < 1 µM. Under `CC(C)COCc1nc(Nc2ccc(C(C)(C)C)cc2)c2ccc(-c3ncccc3C(F)(F)F)nc2n1` [Compound 162, (4-terr-Butyl-phenyl)-[2-isobutoxymethyl-7-(3-trifluoromethyl-pyridin-2-yl)-pyrido[2,3-d]pyrimidin-4-yl]-amine] stands < 1 µM; under `CC(C)COCc1nc(Nc2ccc(C(C)C)cc2)c2ccc(-c3ncccc3C(F)(F)F)nc2n1` [Compound 163, [2-Isobutoxymethyl-7-(3-trifluoromethyl-pyridin-2-yl)-pyrido[2,3-d]pyrimidin-4-yl]-(4-isopropyl-phenyl)-amine], < 1 µM.

Regarding `CC(C)COCc1nc(Nc2ccc(C(F)(F)F)cc2)c2ccc(-c3ncccc3C(F)(F)F)nc2n1` [Compound 164, [2-Isobutoxymethyl-7-(3-trifluoromethyl-pyridin-2-yl)-pyrido[2,3-d]pyrimidin-4-yl]-(4-trifluoromethyl-phenyl)-amine], the Ki is < 1 µM. The result for `CC(C)COCc1nc(Nc2ccc(C(F)(F)F)nc2)c2ccc(-c3ncccc3C(F)(F)F)nc2n1` [Compound 165, [2-Isobutoxymethyl-7-(3-trifluoromethyl-pyridin-2-yl)-pyrido[2,3-d]pyrimidin-4-yl]-(6-trifluoromethyl-pyridin-3-yl)-amine] reads < 1 µM; that for `Cc1cc(Nc2nc(COCC(C)C)nc3nc(-c4ncccc4C(F)(F)F)ccc23)ccc1C(F)(F)F` [Compound 166, [2-Isobutoxymethyl-7-(3-trifluoromethyl-pyridin-2-yl)-pyrido[2,3-d]pyrimidin-4-yl]-(3-methyl-4-trifluoromethyl-phenyl)-amine], < 1 µM; that for `CC(C)COCc1nc(Nc2ccc(C(C)(C)C#N)cc2)c2ccc(-c3ncccc3C(F)(F)F)nc2n1` [Compound 167, 2-{4-[2-Isobutoxymethyl-7-(3-trifluoromethyl-pyridin-2-yl)-pyrido[2,3-d]pyrimidin-4-ylamino]-phenyl}-2-methyl-propionitrile], < 1 µM. Under `CC(C)COCc1nc(Nc2ccc(S(=O)(=O)C(F)(F)F)cc2)c2ccc(-c3ncccc3C(F)(F)F)nc2n1` [Compound 168, [2-Isobutoxymethyl-7-(3-trifluoromethyl-pyridin-2-yl)-pyrido[2,3-d]pyrimidin-4-yl]-(4-trifluoromethanesulfonyl-phenyl)-amine] stands < 1 µM; under `CCOC(=O)COCc1nc(Nc2ccc(C(F)(F)F)cc2)c2ccc(-c3ncccc3C(F)(F)F)cc2n1` [Compound 169, [4-(4-Trifluoromethyl-phenylamino)-7-(3-trifluoromethyl-pyridin-2-yl)-quinazolin-2-ylmethoxy]-acetic acid ethyl ester], < 1 µM.

In the case of `OCc1nc(Nc2ccc(C(F)(F)F)cc2)c2ccc(-c3ncccc3C(F)(F)F)nc2n1` [Compound 171, [4-(4-Trifluoromethyl-phenylamino)-7-(3-trifluoromethyl-pyridin-2-yl)-pyrido[2,3-d]pyrimidin-2-yl]-methanol], the Ki is < 1 µM. Consider `CCOC(=O)c1nc(Nc2ccc(C(F)(F)F)cc2)c2ccc(-c3ncccc3C)nc2n1` [Compound 172, 7-(3-Methyl-pyridin-2-yl)-4-(4-trifluoromethyl-phenylamino)-pyrido[2,3-d]pyrimidine-2-carboxylic acid ethyl ester], for which the Ki was < 1 µM.

Consider `CCOC(=O)c1nc(Nc2ccc(C(F)(F)F)cc2)c2ccc(-c3ncccc3C(F)(F)F)nc2n1` [Compound 173, 4-(4-Trifluoromethyl-phenylamino)-7-(3-trifluoromethyl-pyridin-2-yl)-pyrido[2,3-d]pyrimidine-2-carboxylic acid ethyl ester], for which the Ki was < 1 µM. The result for `Cc1cccnc1-c1ccc2c(Nc3ccc(C(F)(F)F)cc3)nc(C3CCOC3)nc2n1` (centres unmarked) [Compound 174, [7-(3-Methyl-pyridin-2-yl)-2-(tetrahydro-furan-3-yl)-pyrido[2,3-d]pyrimidin-4-yl]-(4-trifluoromethyl-phenyl)-amine] reads < 1 µM. The result for `Cc1cccnc1-c1ccc2c(Nc3ccc(C(C)(C)C#N)cc3)nc(C3CCOC3)nc2n1` (centres unmarked) [Compound 175, 2-Methyl-2-{4-[7-(3-methyl-pyridin-2-yl)-2-(tetrahydro-furan-3-yl)-pyrido[2,3-d]pyrimidin-4-ylamino]-phenyl}-propionitrile] reads < 1 µM; that for `CC(C)COCc1nc(Nc2ccc(C(F)(F)F)cc2)c2ccc(-c3ncccc3Cl)nc2n1` [Compound 176, [7-(3-Chloro-pyridin-2-yl)-2-isobutoxymethyl-pyrido[2,3-d]pyrimidin-4-yl]-(4-trifluoromethyl-phenyl)-amine], < 1 µM; that for `CC(C)COCc1nc(Nc2ccc(C(F)(F)F)nc2)c2ccc(-c3ncccc3Cl)nc2n1` [Compound 177, [7-(3-Chloro-pyridin-2-yl)-2-isobutoxymethyl-pyrido[2,3-d]pyrimidin-4-yl]-(6-trifluoromethyl-pyridin-3-yl)-amine], < 1 µM. Under `Cc1cc(Nc2nc(COCC(C)C)nc3nc(-c4ncccc4Cl)ccc23)ccc1C(F)(F)F` [Compound 178, [7-(3-Chloro-pyridin-2-yl)-2-isobutoxymethyl-pyrido[2,3-d]pyrimidin-4-yl]-(3-methyl-4-trifluoromethyl-phenyl)-amine] stands < 1 µM; under `CC(C)COCc1nc(Nc2ccc(C(C)(C)C#N)cc2)c2ccc(-c3ncccc3Cl)nc2n1` [Compound 179, 2-{4-[7-(3-Chloro-pyridin-2-yl)-2-isobutoxymethyl-pyrido[2,3-d]pyrimidin-4-ylamino]-phenyl}-2-methyl-propionitrile], < 1 µM. Turning to `CC(C)COCc1nc(Nc2ccc(OC(F)(F)F)cc2)c2ccc(-c3ncccc3Cl)nc2n1` [Compound 180, [7-(3-Chloro-pyridin-2-yl)-2-isobutoxymethyl-pyrido[2,3-d]pyrimidin-4-yl]-(4-trifluoromethoxy-phenyl)-amine], the inhibitory constant (Ki) was < 1 µM.
